Patent publication US20110045083A1, “USE LARCH WOOD FOR TREATING INFLAMMATION” (priority 2007, published 2011)

Tested on: 5-LOX mediated LT biosynthesis
Assay: LT biosynthesis inhibition assay in activated neutrophile granulocytes, LTB4 EIA
Type: cell-based, human
Details: for IC50 / inhibition at 50 µM: Homo sapiens; for inhibition at 50 µM: screening concentration 50 μM
Experimental: 1.) LT biosynthesis inhibition assay
The assay was performed as described in [Michael Adams, Olaf Kunert, Ernst Haslinger, Rudolf Bauer: Inhibition of Leukotriene Biosynthesis by Quinolone Alkaloids from the Fruits of Evodia Rutaecarpa; Planta med. 2004 (70): 904-908] with some modifications.
Principle: Activated neutrophile granulocytes with 5-LOX activity are incubated with a defined concentration of test sample and arachidonic acid. After stopping the enzymatic reaction by addition of formic acid and centrifugation to remove cellular fragments, the produced LTB4 is quantified in the supernatant by means of an LTB4 EIA kit.
Isolation of human neutrophile granulocytes: 30 ml of venous human blood from healthy voluntary donors are collected with a Vacutainer™ (BD, Plymouth, UK) system containing a 0.219 M pre-analytical citric acid solution. The blood is immediately transferred to a falcon tube containing 20 ml of sedimentation solution (1% NaCl, 6% dextran T-500) and left to separate for 60 min at 4° C. While most of the dense erythrocytes sink into the dextran layer, the lighter blood fractions remain in the upper layer which is then removed and centrifuged at 1600 rpm (4° C., 10 min) to concentrate the leukocytes. The plasma supernatant is discarded, the pellet is resuspended in 10 ml of a wash buffer (10% CaCl2.2H2O p.a.; 0.1% anhydrous d-glucose; 0.2% MgCl2.6H2O; 0.04% KCl; 1.75% TRIS p.a.; with the pH adjusted to 7.6 with 1N HCl). After centrifugation at 1400 rpm (4° C., 10 min) and removal of the supernatant the resulting pellet is resuspended in 10 ml of a hypotonic lysis buffer (0.17% NH4Cl; 0.2% TRIS; pH 7.2) and gently shaken for 5 min at room temperature to destroy remaining erythrocytes. The suspension is submitted to another centrifugation at 1400 rpm (4° C., 5 min). The pellet is resuspended in 10 ml of wash buffer and then centrifuged at 1400 rpm (4° C., 15 min). The resulting pellet which now mainly contains neutrophile granulocytes is resuspended in 2 ml of TRIS buffer (1.75% TRIS p.a., 0.9% NaCl, pH 7.4), tested for vitality, quantified and then diluted to a cell concentration of 4500 cells/ml with TRIS buffer.
Cell vitality test: 50 μl of cell suspension and 10 μl of trypan blue solution (0.4%) (Sigma Chemical Co. Steinheim, Germany) are mixed on a glass object carrier and examined with a light microscope at 1000 fold magnification. Dead cells appear larger and darker due to absorption of trypan blue. The vitality of the cells must be >95%.
Determination of cell concentration: 10 μl of granulocyte cell suspension are dyed using 990 μl aqueous TURKS solution (Merck) and quantified in a “Neubauer” chamber (Assistent, Germany).
Sample preparation: samples are dissolved in an appropriate amount of ethanol p.a. to be added to the test mixture resulting in screening concentrations of 50 μM for pure compounds and 20 μg/ml for crude. The commercially available 5-LOX inhibitor zileuton (Sequoia Research Products Ltd., UK) is used as a positive control at a concentration of 10 μM representing its IC50 in this test system.
Incubation procedure: The incubation mixture in a 96-well flat bottom microtitre plate (Bibby Sterilin, Staffordshire, UK) consists of 265 μl leukocyte suspension, with 75.5 μM CaCl2, 0.152 μM […] (ETYA) as an inhibitor of the 12-LOX pathway, 0.642 μM Ca ionophore A23187 and 4.43 μM arachidonic acid, the substrate of the 5-LOX pathway, along with 5 μl of each test solution or 5 μl of EtOH p.a. in control wells. After incubation for 10 min at 37° C. in darkness, the reaction is stopped by addition of 20 μl of 10% formic acid. The microtitre plate is centrifuged for 15 min at 1400 rpm to separate free LTB4 from cellular particles before the supernatant is diluted 40 fold in EIA buffer and applied to a competitive LTB4 EIA kit (Assay Designs Inc.).
LTB4 EIA: The plate is incubated for 2 hours at room temperature on an orbital shaker. […]

Row | SMILES | IC50 [µM] | IC50 LT assay | inhibition at 50 µM [%]
1 | CC(C)c1ccc2c(c1)CCC1C(C)(C(=O)O)CCCC21C (stereo not shown) [Dehydroabietic acid] | 44.6 |  | 47.9 ± 8.4
2 | C=CC(C)(O)CCC1C(=C)CC(O)C2C(C)(C)CCCC12C (stereo not shown) [Larixol] | > 125 | inactive | 32.7 ± 5
3 | CC(C)C1=CC2=C(CC1)C1(C)CCCC(C)(C(=O)O)C1CC2 (stereo not shown) [Palustric acid] | 17.8 |  | 66.7 ± 3.1

More lines, main results first:

Row | IC50 [µM] | IC50 LT assay | SMILES | inhibition at 50 µM [%]
4 | 10.9 |  | CC(C)c1ccc2c(c1)CCC1C(C)(CO)CCCC21C (stereo not shown) [Dehydroabietinol] | 94.5 ± 1.4
5 | 10.4 |  | C=CC(C)(O)CCC1C(=C)CC(OC(C)=O)C2C(C)(C)CCCC12C (stereo not shown) [Larixyl acetate] | 98.1 ± 0.1
6 | 10.2 |  | C=C[C@@]1(C)CC[C@H]2C(=CC[C@@H]3[C@]2(C)CCC[C@@]3(C)C(=O)O)C1 [Isopimaric acid] | 98.1 ± 0.5
